According to patent publication US20230279016A1, “Tetrahydropyrazolopyrimidines and Related Analogs for Inhibiting YAP/TAZ-TEAD” (THE KATHOLIEKE UNIVERSITEIT LEUVEN, priority 2021, published 2023):

Assays:
Assay type in all cases: cell-based
[1] = tested on: NCI-H226 mesothelioma cell line; experiment: Mesothelioma cell line proliferation assay, NCI-H226; conditions: NCI-H226, 6 days with compound, cell viability by ATPlite
Description: (§1) Mesothelioma cell lines, NCI-H226 and NCI-H2052 (all sourced from the ATCC cell culture collection) are plated in 96-well plates (Corning® 96 Well White Polystyrene Microplate clear flat bottom, white polystyrene (TC-Treated)), at 1500 cells/well in full medium (RPMI 1640 ATCC modification with L-glutamine, HEPES, Phenol Red, Sodium Pyruvate, High glucose, Low sodium bicarbonate and 10% fetal bovine serum). Cells are incubated overnight at 37° C. in an incubator with 5% CO2. Then compounds, dissolved in DMSO, are added in dose-response. Cells are incubated with compound dilutions for another 6 days at 37° C. in an incubator with 5% CO2. Cell viability is quantitated using the ATPlite kit (Perkin-Elmer) and the luminescence is read-out using an Envision instrument (Perkin-Elmer). The amount of relative light units produced using the ATPlite kit is used to calculated percent of inhibition.
(§2) The activities of example compounds tested are depicted in the table below. The activity ranges A, B and C refer to EC50 values in the mesothelioma cell line proliferation assay as described as follows: “A”: EC50 <1 μM; “B” : 1 μM EC50 ≤10 μM and “C” : EC50 >10 μM. NT: not tested.

[2] = tested on: YAP/TAZ-TEAD transcription; experiment: Reporter gene assay for measuring the inhibition of YAP/TAZ-TEAD transcription (TEAD-responsive element luciferase reporter in Hek293T cells); conditions: Hek293T cells transiently transfected with TEAD-responsive element luciferase reporter, 24 hours incubation
Summary of the method: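 Hek293T cells transiently transfected with TEAD-responsive luciferase reporter, exposed to compound for 24 h at 37° C/5% CO2, then read by luminescence. Percent inhibition normalized to vehicle (0%) and positive control inhibitor (100%); EC50 reported as activity ranges.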

[3] = tested on: NCI-H2052 mesothelioma cell line; experiment: Mesothelioma cell line proliferation assay, NCI-H2052; conditions: NCI-H2052, 6 days with compound, cell viability by ATPlite
Description: as §1, §2

Compound	EC50 [3] [µM]	EC50 ([1]; Homo sapiens, NCI-H226, 144 h) [µM]	EC50 ([2]; Homo sapiens, HEK-293T, 24 h) [µM]	EC50 ([3]; Homo sapiens, NCI-H2052, 144 h) [µM]	EC50 [1] [µM]	EC50 [2] [µM]
C=CC(=O)NCC1CN(c2ccc(S(F)(F)(F)(F)F)cc2)c2ccnn2C1 (single isomer, unassigned) [Cpd. No. 023-En1, (R)- or (S)-N-((4-(4-(pentafluoro-l6-sulfaneyl)phenyl)-4,5,6,7-tetrahydropyrazolo[1,5-a]pyrimidin-6-yl)methyl)acrylamide]	< 1	–	–	–	< 1	< 1
C=CC(=O)NCC1CN(c2ccc(S(F)(F)(F)(F)F)cc2)c2ccnn2C1 (single isomer, unassigned) [Cpd. No. 023-En2, (R)- or (S)-N-((4-(4-(pentafluoro-l6-sulfaneyl)phenyl)-4,5,6,7-tetrahydropyrazolo[1,5-a]pyrimidin-6-yl)methyl)acrylamide]	< 1	–	–	–	< 1	< 1
C=CC(=O)NC[C@@H]1CN(Cc2ccccc2)c2ccnn2C1 (single isomer, unassigned) [Cpd. No. 049-En1, (R)- or (S)-((4-benzyl-4,5,6,7-tetrahydropyrazolo[1,5-a]pyrimidin-6-yl)methyl)acrylamide]	1 to 10	–	–	–	1 to 10	> 20
C=CC(=O)NCC1Cc2c(cnn2C(F)F)N(c2ccc(C(F)(F)F)cc2)C1 (single isomer, unassigned) [Cpd. No. 084-En1, (R)- or (S)-N-((1-(difluoromethyl)-4-(4-(trifluoromethyl)phenyl)-4,5,6,7-tetrahydro-1H-pyrazolo[4,3-b]pyridin-6-yl)methyl)acrylamide]	–	< 1	< 1	< 1	–	–
C=CC(=O)NCC1Cc2c(cnn2C(F)F)N(c2ccc(C(F)(F)F)cc2)C1 (single isomer, unassigned) [Cpd. No. 084-En2, (R)- or (S)-N-((1-(difluoromethyl)-4-(4-(trifluoromethyl)phenyl)-4,5,6,7-tetrahydro-1H-pyrazolo[4,3-b]pyridin-6-yl)methyl)acrylamide]	< 1	–	–	–	< 1	< 1
C=CC(=O)NC[C@H]1Cc2nn(C(F)F)cc2N(c2ccc(C(F)(F)F)cc2)C1 (single isomer, unassigned) [Cpd. No. 085-En1, (R)- or (S)-N-(2-(difluoromethyl)-4-(4-(trifluoromethyl)phenyl)-4,5,6,7-tetrahydro-2H-pyrazolo[4,3-b]pyridin-6-yl)methyl)acrylamide]	< 1	–	–	–	< 1	< 1
C=CC(=O)NCC1Cc2nn(C(F)F)cc2N(c2ccc(C(F)(F)F)cc2)C1 (single isomer, unassigned) [Cpd. No. 085-En2, (R)- or (S)-N-((2-(difluoromethyl)-4-(4-(trifluoromethyl)phenyl)-4,5,6,7-tetrahydro-2H-pyrazolo[4,3-b]pyridin-6-yl)methyl)acrylamide]	–	< 1	< 1	< 1	–	–
FC(F)(F)c1ccc(N2CC(C3CC(Br)=NO3)Cn3nccc32)cc1 (single isomer, unassigned) [Cpd. No. 086-Dia1, 3-bromo-5-(4-(4-(trifluoromethyl)phenyl)-4,5,6,7-tetrahydropyrazolo[1,5-a]pyrimidin-6-yl)-4,5-dihydroisoxazole]	–	< 1	< 1	< 1	–	–
FC(F)(F)c1ccc(N2CC(C3CC(Br)=NO3)Cn3nccc32)cc1 (single isomer, unassigned) [Cpd. No. 086-Dia2, 3-bromo-5-(4-(4-(trifluoromethyl)phenyl)-4,5,6,7-tetrahydropyrazolo[1,5-a]pyrimidin-6-yl)-4,5-dihydroisoxazole]	< 1	–	–	–	< 1	< 1
C=CC(=O)NCC1CN(c2ccc(C(C)C)cc2)c2ccnn2C1 (stereo not drawn) [Cpd. No. 013, N-((4-(4-isopropylphenyl)-4,5,6,7-tetrahydropyrazolo[1,5-a]pyrimidin-6-yl)methyl)acrylamide]	–	< 1	< 1	< 1	–	–
CS(=O)(=O)NCC1CN(c2ccc(C(F)(F)F)cc2)c2ccnn2C1 (stereo not drawn) [Cpd. No. 027, N-((4-(4-(trifluoromethyl)phenyl)-4,5,6,7-tetrahydropyrazolo[1,5-a]pyrimidin-6-yl)methyl)methanesulfonamide]	–	> 10	> 20	> 10	–	–

Second part, led by results:

EC50 [3] [µM]	EC50 ([1]; Homo sapiens, NCI-H226, 144 h) [µM]	EC50 ([2]; Homo sapiens, HEK-293T, 24 h) [µM]	EC50 ([3]; Homo sapiens, NCI-H2052, 144 h) [µM]	Compound	EC50 [1] [µM]	EC50 [2] [µM]
–	< 1	< 1	< 1	C=CC(=O)NC1CN(c2ccc(C(F)(F)F)cc2F)c2ccnn2C1 (single isomer, unassigned) [Cpd. No. 065-En1, (R)- or (S)-N-(4-(2-fluoro-4-(trifluoromethyl)phenyl)-4,5,6,7-tetrahydropyrazolo[1,5-a]pyrimidin-6-yl)acrylamide]	–	–
–	< 1	< 1	< 1	C=CC(=O)NCC1CN(c2ccc(C(F)(F)F)cc2)c2ccnn2C1 (stereo not drawn) [Cpd. No. 002, N-((4-(4-(trifluoromethyl)phenyl)-4,5,6,7-tetrahydropyrazolo[1,5-a]pyrimidin-6-yl)methyl)acrylamide]	–	–
–	< 1	< 1	< 1	C=CC(=O)NCC1CN(c2ccc(Cl)cc2)c2ccnn2C1 (stereo not drawn) [Cpd. No. 005, N-((4-(4-chlorophenyl)-4,5,6,7-tetrahydropyrazolo[1,5-a]pyrimidin-6-yl)methyl)acrylamide]	–	–
–	> 10	< 1	> 10	C=CC(=O)NCC1CN(c2ccc(C(F)(F)F)nc2)c2ccnn2C1 (stereo not drawn) [Cpd. No. 007, N-((4-(6-(trifluoromethyl)pyridin-3-yl)-4,5,6,7-tetrahydropyrazolo[1,5-a]pyrimidin-6-yl)methyl)acrylamide]	–	–
< 1	< 1	< 1	–	C=CC(=O)NCC1CN(c2ccc(OC(F)(F)F)cc2)c2ccnn2C1 (stereo not drawn) [Cpd. No. 011, N-((4-(4-(trifluoromethoxy)phenyl)-4,5,6,7-tetrahydropyrazolo[1,5-a]pyrimidin-6-yl)methyl)acrylamide]	–	–
< 1	< 1	< 1	–	C=CC(=O)NCC1CN(c2ccc(OC(F)F)cc2)c2ccnn2C1 (stereo not drawn) [Cpd. No. 012, N-((4-(4-(difluoromethoxy)phenyl)-4,5,6,7-tetrahydropyrazolo[1,5-a]pyrimidin-6-yl)methyl)acrylamide]	–	–
–	< 1	< 1	< 1	C=CC(=O)NCC1CN(c2ccc(C(F)(F)F)c(F)c2)c2ccnn2C1 (stereo not drawn) [Cpd. No. 015, N-((4-(3-fluoro-4-(trifluoromethyl)phenyl)-4,5,6,7-tetrahydropyrazolo[1,5-a]pyrimidin-6-yl)methyl)acrylamide]	–	–
< 1	< 1	< 1	–	C=CC(=O)NCC1CN(c2ccc(C(F)(F)F)cc2F)c2ccnn2C1 (stereo not drawn) [Cpd. No. 016, N-((4-(2-fluoro-4-(trifluoromethyl)phenyl)-4,5,6,7-tetrahydropyrazolo[1,5-a]pyrimidin-6-yl)methyl)acrylamide]	–	–
–	< 1	< 1	< 1	C=CC(=O)NCC1CN(c2ccc(C(F)(F)F)cc2)c2cc(C)nn2C1 (stereo not drawn) [Cpd. No. 029, N-((2-methyl-4-(4-(trifluoromethyl)phenyl)-4,5,6,7-tetrahydropyrazolo[1,5-a]pyrimidin-6-yl)methyl)acrylamide]	–	–
–	< 1	< 1	< 1	C=CC(=O)NCC1CN(c2ccc(C(F)(F)F)cc2)c2cc(C3CC3)nn2C1 (stereo not drawn) [Cpd. No. 031, N-((2-cyclopropyl-4-(4-(trifluoromethyl)phenyl)-4,5,6,7-tetrahydropyrazolo[1,5-a]pyrimidin-6-yl)methyl)acrylamide]	–	–
–	< 1	< 1	< 1	C=CC(=O)NCC1CN(c2ccc(C(F)(F)F)cc2)c2cc(CC3CC3)nn2C1 (stereo not drawn) [Cpd. No. 032, N-((2-(cyclopropylmethyl)-4-(4-(trifluoromethyl)phenyl)-4,5,6,7-tetrahydropyrazolo[1,5-a]pyrimidin-6-yl)methyl)acrylamide]	–	–
–	< 1	< 1	< 1	C=CC(=O)NCC1CN(c2ccc(C(F)(F)F)cc2)c2cc(C(F)(F)F)nn2C1 (stereo not drawn) [Cpd. No. 034, N-((2-(trifluoromethyl)-4-(4-(trifluoromethyl)phenyl)-4,5,6,7-tetrahydropyrazolo[1,5-a]pyrimidin-6-yl)methyl)acrylamide]	–	–
–	1 to 10	< 1	< 1	C#CC(=O)NCC1CN(c2ccc(C(F)(F)F)cc2)c2ccnn2C1 (stereo not drawn) [Cpd. No. 038, N-((4-(4-(trifluoromethyl)phenyl)-4,5,6,7-tetrahydropyrazolo[1,5-a]pyrimidin-6-yl)methyl)propiolamide]	–	–
